Test results as given in patent publication US9586928B2 (The Scripps Research Institute, priority 2011, dated 2017).

How the values were obtained:
FXR = target: T1, FXR (Homo sapiens, UniProt Q96RI1); experiment: Gal4-FXR / UAS luciferase cotransfection assay; format: cell-based; conditions: Gal4 chimeric cotransfection
T1 sequence (Q96RI1 262-486 limits assumed): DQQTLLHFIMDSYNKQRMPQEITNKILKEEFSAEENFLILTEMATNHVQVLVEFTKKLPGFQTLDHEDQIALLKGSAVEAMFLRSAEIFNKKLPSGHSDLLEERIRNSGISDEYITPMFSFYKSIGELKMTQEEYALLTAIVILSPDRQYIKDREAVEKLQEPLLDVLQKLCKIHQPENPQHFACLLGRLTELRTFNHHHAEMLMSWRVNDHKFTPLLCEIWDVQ
Procedure: Cotransfection assays were performed as previously described in HEK293 cells (Gal4 cotransfection assay or IL-17 luciferase reporter)[8]. HEK293 and the mouse lymphoma EL4 (ATCC) cells were maintained in DMEM supplemented with 10% FBS plus antibiotics (penicillin and streptomycin; Invitrogen).

VP16 = experiment: Gal4 DBD-VP16 / UAS luciferase control assay; format: cell-based
Procedure: The cells were treated with either DMSO or various compounds as indicated four hours after replating. Following additional 20 hour incubation, luciferase levels were assayed by one-step addition of 20 μL BriteLite (Perkin Elmer) and read using an Envision multilabel plate reader (Perkin Elmer).

Compound: OC(c1ccc(-c2ccc(CN3CCN(Cc4ccncc4)CC3)cc2)c(F)c1)(C(F)(F)F)C(F)(F)F [SR2211, 1,1,1,3,3,3-hexafluoro-2-(2-fluoro-4′-((4-(pyridin-4-ylmethyl)piperazin-1-yl)methyl)-[1,1′-biphenyl]-4-yl)propan-2-ol]
- effect on transcriptional activity of FXR (FXR): no effect on the transcriptional activity of FXR
- luciferase activity of Gal4 DBD-VP16 (off-target effects/toxicity) (VP16): no change in the luciferase activity of Gal4 DBD-VP16
